The NIST ThermoML archive (doi:10.1016/j.tca.2014.03.027)

How the values were obtained:
[1] = molar heat capacity at constant pressure; settings: 298.15 K; 101.33 kPa; Liquid; Small sample (50 mg) DSC
[2] = xn = mol fraction of the nth substance listed; settings: 101 kPa, Liquid, Small sample (50 mg) DSC
[3] = 298.15 K; 101.33 kPa; Liquid; Vibrating tube method

CCCCCCC [heptane]
Settings | molar heat capacity at constant pressure [J/K/mol]
[1] | 223.91

CO [methanol]
Settings | molar heat capacity at constant pressure [J/K/mol]
[1] | 80.81

NCc1ccccc1 [benzylamine] + CCCCCO
excess molar heat capacity [J/K/mol], [2]
Settings | 293.15 K | 298.15 K | 308.15 K
x2 = 0.0495 | 2.15 | 2.31 | 2.12
x2 = 0.1528 | 5.18 | 5.79 | 5.71
x2 = 0.2765 | 8.64 | 8.73 | 8.42
x2 = 0.2967 | 9.27 | 9.48 | 8.89
x2 = 0.4512 | 12.51 | 12.28 | 11.2
x2 = 0.4994 | 13.7 | 13.25 | 12.08
x2 = 0.6006 | 13.71 | 13.13 | 11.91
x2 = 0.6516 | 12.63 | 12.04 | 10.9
x2 = 0.7019 | 11.57 | 10.98 | 9.9
x2 = 0.7998 | 9.04 | 8.54 | 7.76
x2 = 0.8493 | 7.39 | 7.06 | 6.31
x2 = 0.899 | 5.41 | 5.16 | 4.6
x2 = 0.9505 | 2.72 | 2.46 | 2.3

NCc1ccccc1 [benzylamine] + CO
excess molar heat capacity [J/K/mol], [2]
Settings | 293.15 K | 298.15 K | 308.15 K
x2 = 0.0537 | 1.16 | 1.26 | 1.59
x2 = 0.1106 | 2.61 | 2.84 | 3.36
x2 = 0.2041 | 5.02 | 5.43 | 6.08
x2 = 0.2963 | 7.9 | 8.16 | 8.87
x2 = 0.3518 | 9.32 | 9.77 | 10.2
x2 = 0.397 | 10.86 | 11.3 | 11.89
x2 = 0.4966 | 12.24 | 12.88 | 13.26
x2 = 0.5512 | 12.66 | 13.17 | 13.67
x2 = 0.5987 | 12.63 | 12.99 | 13.38
x2 = 0.6991 | 10.63 | 11.13 | 11.55
x2 = 0.7484 | 9.18 | 9.49 | 10
x2 = 0.7988 | 7.43 | 7.67 | 8.28
x2 = 0.849 | 4.92 | 5.29 | 5.72
x2 = 0.9009 | 3.22 | 3.49 | 3.8

CCCCCO [pentan-1-ol]
Settings | molar heat capacity at constant pressure [J/K/mol]
[1] | 206.67

NCc1ccccc1 [benzylamine]
Settings | mass density [kg/m3] | molar heat capacity at constant pressure [J/K/mol]
[1] | – | 206.74
[3] | 978.337 | –

NCc1ccccc1 [benzylamine] + CCCCCCC
[2], 293.15 K
Settings | excess molar heat capacity [J/K/mol]
x1 = 0.1982 | 0.78
x1 = 0.2473 | 1.66
x1 = 0.2989 | 3.35
x1 = 0.3496 | 4.17
x1 = 0.3734 | 4.88
x1 = 0.3986 | 5.87
x1 = 0.4976 | 6.51
x1 = 0.5988 | 5.47
x1 = 0.6983 | 3.47
x1 = 0.7991 | 1.46

CCCO [propan-1-ol]
Settings | molar heat capacity at constant pressure [J/K/mol]
[1] | 143.41

NCc1ccccc1 [benzylamine] + CCCO
excess molar heat capacity [J/K/mol], [2]
Settings | 293.15 K | 298.15 K | 308.15 K
x2 = 0.0665 | 1.89 | 2.55 | 2.84
x2 = 0.1004 | 2.96 | 3.37 | 3.45
x2 = 0.1986 | 6.26 | 6.74 | 6.5
x2 = 0.2994 | 9.38 | 9.67 | 9.53
x2 = 0.4007 | 11.35 | 11.45 | 11.18
x2 = 0.4477 | 11.83 | 11.95 | 11.58
x2 = 0.5497 | 13.34 | 13.25 | 12.85
x2 = 0.6032 | 13.04 | 12.99 | 12.57
x2 = 0.6515 | 12.75 | 12.91 | 12.84
x2 = 0.6998 | 12.05 | 12.14 | 11.7
x2 = 0.8014 | 9.42 | 9.48 | 9.06
x2 = 0.849 | 7.29 | 7.32 | 7.22
x2 = 0.9003 | 4.9 | 5.05 | 4.75
